Broadly, the IC50 is the midpoint of a concentration-inhibition curve.

In the first assay the target is Glycogen synthase kinase-3 beta (Homo sapiens, UniProt P49841). In words: Inhibition of human recombinant GSK3-beta using gamma[33P]-ATP after 30 mins by scintillation proximity assay. For orientation: SPA uses beads or plates that emit light when radiolabelled molecules are held near them.
Chain of Glycogen synthase kinase-3 beta (P49841 whole entry): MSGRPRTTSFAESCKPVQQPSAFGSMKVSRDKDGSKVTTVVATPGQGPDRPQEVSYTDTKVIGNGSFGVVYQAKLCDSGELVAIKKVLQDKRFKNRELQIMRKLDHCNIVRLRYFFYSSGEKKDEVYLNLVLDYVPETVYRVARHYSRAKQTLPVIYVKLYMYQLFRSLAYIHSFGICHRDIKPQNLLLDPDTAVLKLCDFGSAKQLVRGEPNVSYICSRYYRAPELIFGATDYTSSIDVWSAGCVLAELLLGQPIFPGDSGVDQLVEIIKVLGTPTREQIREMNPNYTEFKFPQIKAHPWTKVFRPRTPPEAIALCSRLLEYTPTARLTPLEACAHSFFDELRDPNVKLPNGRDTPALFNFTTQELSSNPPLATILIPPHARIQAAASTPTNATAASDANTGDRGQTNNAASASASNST
`CCCC(=O)Nc1n[nH]c2cc(Br)ccc12`: the IC50 was determined as 198 nM. With `CCCC(=O)Nc1n[nH]c2cc(Cc3ccccc3)ccc12`, the IC50 amounted to 4140 nM. Take `Cc1ccc(-c2ccc3c(NC(=O)CCC(=O)O)n[nH]c3c2)cc1`: the IC50 is 17100 nM.

Take `CCCC(=O)Nc1n[nH]c2c(F)c(Cl)c(-c3ccccc3)cc12`: the IC50 came out at 6 nM.

For `CCCC(=O)Nc1n[nH]c2cc(C(F)(F)F)ccc12`, the IC50 is 195 nM.

For `CCCC(=O)Nc1n[nH]c2cc(Cl)c(-c3ccc(F)cc3)cc12`, the IC50 was found to be 22 nM. On to `CCCC(=O)Nc1n[nH]c2cc(-c3ccc(SC)cc3)ccc12`, for which the IC50 was 7160 nM. Take `CCCC(=O)Nc1n[nH]c2cc(Cl)ccc12`: the IC50 was determined as 354 nM. As for `CCCC(=O)Nc1n[nH]c2c(Cl)c(Cl)c(-c3ccccc3)cc12`, the IC50 is 12 nM.

With `O=C(O)CCC(=O)Nc1n[nH]c2cc(Cl)ccc12`, the IC50 was 1180 nM. With `CCCC(=O)Nc1n[nH]c2cc(-c3ccc(O)cc3)c(-c3ccc(O)cc3)cc12`, the IC50 worked out at 56 nM.

Take `CCCC(=O)Nc1n[nH]c2cc(Cl)c(-c3ccc(CC)cc3)cc12`: the IC50 stood at 12 nM. Take `CCCC(=O)Nc1n[nH]c2cc(-c3ccc(Cl)cc3)ccc12`: the IC50 was greater than 100000 nM. Consider `CCCC(=O)Nc1n[nH]c2cc(Cl)c(-c3ccc(C)cc3)cc12`, for which the IC50 was 14 nM. Consider `CCCC(=O)Nc1n[nH]c2cc(Cl)c(-c3ccc(O)cc3)cc12`, for which the IC50 was 10 nM. Regarding `CCCC(=O)Nc1n[nH]c2cc(-c3ccccc3)ccc12`, the IC50 stood at 1280 nM. For `CCCC(=O)Nc1n[nH]c2cc(-c3cccc(O)c3)ccc12`, the IC50 came out at 94 nM. Take `CCCC(=O)Nc1n[nH]c2cc(CCc3ccccc3)ccc12`: the IC50 turned out to be 8530 nM. Still for that read-out and setting: then `CCCC(=O)Nc1n[nH]c2cc(-c3ccc(O)cc3)c(-c3ccccc3)cc12`, with 55 nM; and `CCCC(=O)Nc1n[nH]c2cc(-c3ccc(O)c(O)c3)ccc12`, with 27 nM. Regarding `CCCC(=O)Nc1n[nH]c2cc(-c3ccc(N)cc3)ccc12`, the IC50 came to 76 nM.

In the case of `CCCC(=O)Nc1n[nH]c2cc(-c3ccc(F)cc3)ccc12`, the IC50 stood at 5010 nM.

On to `CCCC(=O)Nc1n[nH]c2cc(-c3ccc(CC)cc3)ccc12`, for which the IC50 was greater than 100000 nM. As to `CCCC(=O)Nc1n[nH]c2cc(-c3ccc(N)nc3)ccc12`, the IC50 worked out at 1090 nM. As to `CCCC(=O)Nc1n[nH]c2cc(-c3ccc(C(C)(C)C)cc3)ccc12`, the IC50 came out at 3810 nM.

`CCCC(=O)Nc1n[nH]c2cc(-c3ccc(O)cc3Cl)ccc12`: the IC50 is 55 nM.

`CCCC(=O)Nc1n[nH]c2cc(-c3ccc([N+](=O)[O-])cc3)ccc12`: the IC50 is greater than 100000 nM.

Take `CCCC(=O)Nc1n[nH]c2cc(-c3ccccc3)c(-c3ccccc3)cc12`: the IC50 worked out at 1720 nM. Still for that read-out and setting: the result for `CCCC(=O)Nc1n[nH]c2cc(-c3ccc(O)cc3)c(Br)cc12` reads 5 nM.

As to `CCCC(=O)Nc1n[nH]c2cc(-c3ccncc3)ccc12`, the IC50 is 661 nM. Regarding `CCCC(=O)Nc1n[nH]c2cc(-c3ccc(O)nc3)ccc12`, the IC50 amounted to 16800 nM. `CCCC(=O)Nc1n[nH]c2cc(Cl)c(-c3ccc(OCc4ccccc4)cc3)cc12`: the IC50 amounted to 23 nM. `CCCC(=O)Nc1n[nH]c2cc(-c3ccc4c(c3)COO4)ccc12`: the IC50 turned out to be 25000 nM.

`CCCC(=O)Nc1n[nH]c2cc(Cl)c(-c3ccccc3)cc12`: the IC50 stood at 7 nM. Regarding `C/C=C/c1ccc2c(NC(=O)CCC)n[nH]c2c1`, the IC50 is 2460 nM. For `CCCC(=O)Nc1n[nH]c2cc(Cl)c(-c3ccc(N)cc3)cc12`, the IC50 stood at 8 nM. Same read-out and setting: the result for `CCCC(=O)Nc1n[nH]c2cc(-c3ccc(OCc4ccccc4)cc3)ccc12` reads 1180 nM; that for `CCCC(=O)Nc1n[nH]c2cc(-c3ccoc3)ccc12`, 260 nM; that for `CCCC(=O)Nc1n[nH]c2cc(-c3ccc(O)cc3)c(-c3ccco3)cc12`, 14 nM. Take `CCCC(=O)Nc1n[nH]c2cc(Cl)c(-c3ccncc3)cc12`: the IC50 is 50 nM. As to `CCCC(=O)Nc1n[nH]c2cc(-c3cc(Cl)cc(Cl)c3)ccc12`, the IC50 worked out at 5410 nM. Consider `CCCC(=O)Nc1n[nH]c2cc(-c3cc(F)cc(F)c3)ccc12`, for which the IC50 is 2890 nM. Take `CCCC(=O)Nc1n[nH]c2cc(-c3ccc(O)cc3)c(-c3ccoc3)cc12`: the IC50 is 98 nM. Take `CCCC(=O)Nc1n[nH]c2cc(-c3ccc(O)cc3)c(-c3ccc(CC)cc3)cc12`: the IC50 turned out to be 49 nM.

As to `N#Cc1ccc(-c2ccc3c(NC(=O)CCC(=O)O)n[nH]c3c2)cc1`, the IC50 is 20500 nM. Turning to `CCCC(=O)Nc1n[nH]c2cc(-c3ccc(N(C)C)cc3)ccc12`, the IC50 was found to be 12200 nM. Take `CCCC(=O)Nc1n[nH]c2cc(-c3ccc(C(F)(F)F)cc3)ccc12`: the IC50 turned out to be 10500 nM. In the case of `CCCC(=O)Nc1n[nH]c2cc(-c3ccc(O)cc3)ccc12`, the concentration for half-maximal inhibition (IC50) amounted to 44 nM. On to `CCCC(=O)Nc1n[nH]c2cc(-c3ccsc3)ccc12`, for which the IC50 stood at 935 nM. Still for that read-out and setting: then `CCCC(=O)Nc1n[nH]c2cc(-c3ccc(Oc4ccccc4)cc3)c(-c3ccc(Oc4ccccc4)cc3)cc12`, with greater than 10000 nM; and `CCCC(=O)Nc1n[nH]c2cc(Cl)c(-c3ccoc3)cc12`, with 11 nM. On the same count and under the same terms, the result for `CCCC(=O)Nc1n[nH]c2cc(-c3ccccc3Cl)ccc12` reads 1350 nM; that for `CCCC(=O)Nc1n[nH]c2cc(-c3ccc(OC(F)(F)F)cc3)ccc12`, 5500 nM.

As for `CCCC(=O)Nc1n[nH]c2cc(-c3ccc(OC)cc3)ccc12`, the IC50 was greater than 100000 nM. The same measure, in the same setting: then `CCCC(=O)Nc1n[nH]c2cc(-c3ccc(O)cc3)c(-c3cccnc3)cc12`, with 149 nM; and `CCCC(=O)Nc1n[nH]c2cc(Cl)c(-c3ccc([N+](=O)[O-])cc3)cc12`, with 18 nM.

The target of the next assay is Aurora kinase A (Homo sapiens) (UniProt O14965). In words: Inhibition of Aurora kinase 2.
Chain of Aurora kinase A (Homo sapiens) (O14965 whole entry, looked up): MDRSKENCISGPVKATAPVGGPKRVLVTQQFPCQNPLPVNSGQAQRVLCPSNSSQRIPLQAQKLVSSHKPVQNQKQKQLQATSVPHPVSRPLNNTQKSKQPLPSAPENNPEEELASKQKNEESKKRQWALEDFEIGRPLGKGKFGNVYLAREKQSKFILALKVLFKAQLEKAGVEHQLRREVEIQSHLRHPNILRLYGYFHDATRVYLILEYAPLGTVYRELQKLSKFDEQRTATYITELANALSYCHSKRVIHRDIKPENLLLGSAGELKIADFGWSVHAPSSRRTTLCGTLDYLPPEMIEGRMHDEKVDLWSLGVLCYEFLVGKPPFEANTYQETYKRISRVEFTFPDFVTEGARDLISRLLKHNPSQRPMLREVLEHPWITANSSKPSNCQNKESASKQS
In turn, `CCCC(=O)Nc1n[nH]c2cc(-c3ccc(O)cc3)ccc12` returned an IC50 greater than 30000 nM.

The next assay concerns the target Cyclin-dependent kinase 2 (Homo sapiens, UniProt P24941).
Assay: not given
Take `CCCC(=O)Nc1n[nH]c2c(F)c(Cl)c(-c3ccccc3)cc12`: it took 3160 nM to reach half-maximal inhibition (IC50). `CCCC(=O)Nc1n[nH]c2c(Cl)c(Cl)c(-c3ccccc3)cc12` displayed an IC50 greater than 10000 nM.

The next assay deals with Microtubule-associated protein tau (Rattus norvegicus, UniProt P19332). In words: Inhibition of Tau phosphorylation in rat cerebral cortex after 120 mins by chemiluminescence assay. Type of assay: tissue-based.
Chain of Microtubule-associated protein tau (P19332 whole entry): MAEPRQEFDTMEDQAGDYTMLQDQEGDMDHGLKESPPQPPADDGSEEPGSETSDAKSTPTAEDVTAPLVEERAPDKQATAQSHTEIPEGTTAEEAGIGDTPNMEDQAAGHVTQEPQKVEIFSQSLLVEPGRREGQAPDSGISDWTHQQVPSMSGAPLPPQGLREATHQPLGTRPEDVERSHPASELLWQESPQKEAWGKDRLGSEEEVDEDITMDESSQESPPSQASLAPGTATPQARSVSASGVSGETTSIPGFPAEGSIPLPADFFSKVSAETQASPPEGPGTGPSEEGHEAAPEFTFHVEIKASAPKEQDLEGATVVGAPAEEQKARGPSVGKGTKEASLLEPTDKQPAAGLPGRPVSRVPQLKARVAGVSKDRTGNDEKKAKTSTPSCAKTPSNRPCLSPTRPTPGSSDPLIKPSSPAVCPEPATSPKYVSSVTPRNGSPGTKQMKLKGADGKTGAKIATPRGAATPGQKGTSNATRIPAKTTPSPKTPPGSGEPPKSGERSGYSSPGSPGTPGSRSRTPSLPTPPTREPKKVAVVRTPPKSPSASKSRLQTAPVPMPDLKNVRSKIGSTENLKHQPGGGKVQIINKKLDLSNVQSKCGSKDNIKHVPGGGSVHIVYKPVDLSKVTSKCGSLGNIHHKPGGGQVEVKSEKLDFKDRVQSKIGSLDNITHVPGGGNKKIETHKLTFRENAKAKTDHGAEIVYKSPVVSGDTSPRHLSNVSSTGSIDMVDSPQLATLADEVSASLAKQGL
As for `CCCC(=O)Nc1n[nH]c2c(F)c(Cl)c(-c3ccccc3)cc12`, half-maximal inhibition (IC50) required 250 nM.

The compound `CCCC(=O)Nc1n[nH]c2cc(Cl)c(-c3ccccc3)cc12` showed an IC50 of 400 nM.

The target of a further assay is Cyclin-dependent kinase 1 (Homo sapiens, UniProt P06493). In words: Inhibition of Cdk1.
Chain of Cyclin-dependent kinase 1 (P06493 whole entry): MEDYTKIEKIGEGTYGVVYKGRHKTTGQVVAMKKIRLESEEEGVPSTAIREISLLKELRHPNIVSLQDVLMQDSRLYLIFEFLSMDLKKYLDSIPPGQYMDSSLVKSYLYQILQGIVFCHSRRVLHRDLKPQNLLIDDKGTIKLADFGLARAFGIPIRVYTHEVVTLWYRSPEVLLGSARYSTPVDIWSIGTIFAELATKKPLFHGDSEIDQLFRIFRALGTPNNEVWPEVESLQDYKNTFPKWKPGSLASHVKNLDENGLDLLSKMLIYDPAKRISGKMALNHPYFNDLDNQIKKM
`CCCC(=O)Nc1n[nH]c2c(F)c(Cl)c(-c3ccccc3)cc12` showed an IC50 of 2500 nM.

On to `CCCC(=O)Nc1n[nH]c2cc(Cl)c(-c3ccccc3)cc12`, for which the IC50 worked out at 100 nM.

(Values after ChEMBL document CHEMBL1155393, “Rational design of potent GSK3beta inhibitors with selectivity for Cdk1 and Cdk2” (Bioorg Med Chem Lett, 2010).)
